Test results published in PubChem BioAssay (NCI).
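All cell lines were grown in 96-well plates and treated with compound for 48 hours. Abbreviation: GI50, concentration required for 50% inhibition of growth. TGI is the concentration that stops growth completely.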

Columns and labels:
Experiment in all cases: NCI tumour cell line growth inhibition, 48 h
T-47D breast = system: T-47D breast
U251 CNS = system: U251 CNS
A498 renal = system: A498 renal
IGROV1 ovarian = system: IGROV1 ovarian
NCI-H226 lung = system: NCI-H226 lung
HCT-15 colon = system: HCT-15 colon
SF-268 CNS = system: SF-268 CNS
SNB-19 CNS = system: SNB-19 CNS
UO-31 renal = system: UO-31 renal
SNB-75 CNS = system: SNB-75 CNS

Row | SMILES | TGI (T-47D breast) | TGI (U251 CNS) | TGI (A498 renal) | TGI (IGROV1 ovarian) | TGI (NCI-H226 lung) | TGI (HCT-15 colon) | TGI (SF-268 CNS) | TGI (SNB-19 CNS) | TGI (UO-31 renal) | TGI (SNB-75 CNS) | GI50 (T-47D breast) | GI50 (U251 CNS) | GI50 (A498 renal) | GI50 (SNB-75 CNS) | GI50 (IGROV1 ovarian) | GI50 (NCI-H226 lung) | GI50 (HCT-15 colon) | GI50 (SF-268 CNS) | GI50 (SNB-19 CNS) | GI50 (UO-31 renal)
1 | C[C@H]1CC[C@@H]2[C@@H](C)[C@H]3[C@H](C[C@H]4[C@@H]5CC=C6C[C@@H](O)CC[C@]6(C)[C@H]5CC[C@]34C)N2C1 | > 100 µM | > 100 µM | 41.7 µM | > 100 µM | > 100 µM | > 100 µM | > 100 µM | > 100 µM | > 100 µM |  |  |  |  |  |  |  |  |  |  | 
2 | COc1ccc2c(c1)[nH]c1c3ccc(OC)cc3oc(=O)c21 | > 100 µM | > 100 µM | > 100 µM | > 100 µM | > 100 µM | > 100 µM | > 100 µM | > 100 µM | > 100 µM | > 100 µM |  |  |  |  |  |  |  |  |  | 
3 | CN(C)CCOc1ccc2c(c1)C(=O)/C(=C\c1ncc([N+](=O)[O-])n1C)C2 | 11.4 µM | 4.75 µM | 0.931 µM | 0.378 µM | 3.7 µM | 7.39 µM | 3.11 µM | 3.18 µM | 3.68 µM | 1.98 µM | 1.76 µM | 1.12 µM | 0.307 µM | 0.474 µM | 0.147 µM | 1.31 µM | 0.311 µM | 0.489 µM | 1.15 µM | 0.9 µM
4 | CCCC(=O)OC(OC(=O)CCC)c1ccc([N+](=O)[O-])o1 | 61.5 µM | > 100 µM | > 100 µM | 28.3 µM |  | 43.4 µM | > 100 µM | > 100 µM | 56.7 µM | > 100 µM |  |  |  |  |  |  |  |  |  | 
5 | CC1=C(SCCC(=O)OC(C[Se]C2=C(C)C(=O)c3ccccc3C2=O)C(=O)NC(C)(C)C)C(=O)c2ccccc2C1=O (stereo not drawn) | 2.95 µM | 1.57 µM | 2.97 µM | 2.1 µM | 4.14 µM | 3.11 µM | 2.88 µM | 2.08 µM | 2.15 µM | 2.76 µM | 0.904 µM | 0.45 µM | 1.55 µM | 1.45 µM | 0.771 µM | 1.87 µM | 1.47 µM | 1.55 µM | 0.867 µM | 0.68 µM
6 | O=C1C=CC(=O)c2c(O)c(N(CCCl)CCCl)c(Cl)c(O)c21 | 6.57 µM | > 9.09 µM | > 9.53 µM | > 7.99 µM | > 10 µM | > 8.58 µM | > 8.4 µM | > 10 µM | > 7.1 µM | > 10 µM |  |  |  |  |  |  |  |  |  | 
7 | CCOC(=O)Cc1cc(=O)[nH]c(-n2[nH]c(C)c(CCO)c2=O)n1 | > 100 µM | > 100 µM | > 100 µM | > 100 µM | > 100 µM | > 100 µM | > 100 µM | > 100 µM | > 100 µM |  |  |  |  |  |  |  |  |  |  | 
8 | CN(C)Cc1cc(C(C)(C)C)cc(CN(C)C)c1O | > 100 µM | > 100 µM | > 100 µM | > 100 µM |  | > 100 µM | > 100 µM | > 100 µM | 51.6 µM | > 100 µM |  |  |  |  |  |  |  |  |  | 
9 | C[C@@H](C[C@H](CCO)c1ccccc1)c1ccc2ccccc2c1 | 3.11 µM | 2.94 µM | 2.42 µM | 3.01 µM |  | 2.91 µM | 3.09 µM | 3.42 µM | 2.88 µM | 2.76 µM | 1.44 µM | 1.57 µM | 1.16 µM | 1.35 µM | 1.57 µM |  | 1.5 µM | 1.48 µM | 1.79 µM | 1.54 µM
10 | COc1cc([C@@H]2c3cc4c(cc3[C@@H](NCc3cccc(F)c3)C3COC(=O)[C@@H]32)OCO4)cc(OC)c1O (stereo partly drawn) |  | 7.11 µM | 13.1 µM | 17.5 µM | 6.55 µM | 20.5 µM | > 65 µM | > 65 µM | 14.3 µM | 13.5 µM |  |  |  |  |  |  |  |  |  | 
11 | Cc1ccc(C)c(NC(=O)C(=O)Nn2c(=S)[nH]c3ccccc3c2=O)c1 |  | > 100 µM | > 100 µM | > 100 µM | > 100 µM | > 100 µM | > 100 µM | > 100 µM | > 100 µM | > 100 µM |  |  |  |  |  |  |  |  |  | 
12 | COc1cc(CCc2ccncc2)cc(OC)c1OC |  | > 100 µM | > 100 µM | > 100 µM | > 100 µM | > 100 µM | > 100 µM | > 100 µM | > 100 µM | > 100 µM |  |  |  |  |  |  |  |  |  | 
13 | COC(=O)C#CC(N)=O |  | > 100 µM | > 100 µM | > 100 µM | > 100 µM | > 100 µM | > 100 µM | > 100 µM | > 100 µM | > 100 µM |  |  |  |  |  |  |  |  |  | 
14 | CC1OC(=O)N2CCC=CC12 (stereo not drawn) |  | > 100 µM | > 100 µM | > 100 µM | > 100 µM | > 100 µM | > 100 µM | > 100 µM | > 100 µM | > 100 µM |  |  |  |  |  |  |  |  |  | 
15 | COc1ccc(/C=C/C(=O)c2ccc(Nc3nc(Nc4ccc(F)cc4)nc(Nc4ccc(F)cc4)n3)cc2)cc1 | 52.5 µM | 56.2 µM | 28.2 µM |  | 65.7 µM | > 100 µM | 94.6 µM | > 100 µM | 31.9 µM | > 100 µM | 5.42 µM | 16.7 µM | 11.8 µM | 30.6 µM |  | 19.8 µM | 14.4 µM | 22.5 µM | 30.9 µM | 10.2 µM
16 | Cc1nc(-n2nc(-c3ccccc3)cc2-c2ccccc2)sc1C(=O)CC(=O)C(=O)Nc1ccc(O)cc1 |  | > 100 µM | > 100 µM | > 100 µM | > 100 µM | > 100 µM | > 100 µM | > 100 µM | > 100 µM | > 100 µM |  |  |  |  |  |  |  |  |  | 
17 | O=C(CCc1cc(-c2ccc(F)cc2)n[nH]1)N(Cc1ccccc1)Cc1ccccc1 |  | > 100 µM | > 100 µM | > 100 µM | > 100 µM | > 100 µM | > 100 µM | > 100 µM | > 100 µM | > 100 µM |  |  |  |  |  |  |  |  |  | 
18 | COc1ccc(F)cc1-c1ccnc2[nH]c(C3=CCN(C4CCC(CC(=O)O)CC4)CC3)cc12 (stereo not drawn) | > 100 µM | > 100 µM | 0.543 µM | > 100 µM |  | > 100 µM | 17.7 µM | > 100 µM | 0.625 µM | 0.381 µM | 0.187 µM | 0.137 µM | 0.21 µM | 0.13 µM | 0.168 µM |  | 0.249 µM | 0.144 µM | 0.152 µM | 0.205 µM
